Reference: patent publication US4542137A, “Alkylaminodesoxy-1.4;3.6-dianhydrohexitol nitrates substituted by purine bases and pharmaceutical compositions” (priority 1980, dated 1985)

Test system: mongrel dogs
Assay: circulatory pharmacological effectiveness on narcotised dogs, intravenous
Format: in vivo, dog
[1] = dog i.v. ISDN/9c 1, 1d 0.5 mg/kg, 40 min
[2] = dog i.v. ISDN/9c 1, 1d 0.5 mg/kg, 50 min
[3] = dog i.v. ISDN/9c 1, 1d 0.5 mg/kg, 60 min
[4] = dog i.v. ISDN/9c 1, 1d 0.5 mg/kg, 90 min
[5] = dog i.v. ISDN/9c 1, 1d 0.5 mg/kg, 120 min
[6] = dog i.v. ISDN/9c 1, 1d 0.5 mg/kg, 150 min
[7] = dog i.v. ISDN/9c 1, 1d 0.5 mg/kg, 180 min
[8] = dog i.v., before administration (v)

**Q.** `Cn1c(=O)c2c(ncn2CCCN[C@H]2CO[C@H]3[C@@H]2OC[C@@H]3O[N+](=O)[O-])n(C)c1=O` [Example 1d, 5-(3-Theophyllin-7-ylpropyl)-amino-5-desoxy-1.4;3.6-dianhydro-L-iditol 2-nitrate] was tested. Which “BFFem: blood flow in the A. femoralis referred to 20 kg body weight” value (from here on “BFFem: blood flow”) [1] did it give?
**A.** 58.5 mL/min

**Q.** And the “HF: heart frequency” value [1]?
**A.** 97.5

**Q.** And the “HLL: heart capacity left, referred to 20 kg body weight” value (shortened to “HLL: heart capacity left, referred”) [1]?
**A.** 0.43 W

**Q.** What about the “HLR: heart capacity right, referred to 20 kg body weight” value (“HLR: heart capacity right, referred” below) [1] of the same compound?
**A.** 50.8 mW

**Q.** And the “HZV: heart minute volume, referred to 20 kg body weight” value (shortened to “HZV: heart minute volume, referred”) [1]?
**A.** 2.05 L/min

**Q.** What about the “SV: beat volume, referred to 20 kg body weight” value (“SV: beat volume, referred” below) [1] of the same compound?
**A.** 21.5 mL

**Q.** What about the “WAP: pulmonalis resistance, referred to 20 kg body weight” value (“WAP: pulmonalis resistance, referred” for short) [1] of the same compound?
**A.** 0.50 U

**Q.** What about the “WFem: moralis resistance, referred to 20 kg body weight” value (“WFem: moralis resistance, referred” for short) [1] of the same compound?
**A.** 0.25 KU

**Q.** And the “WTP: total peripheral resistance, referred to 20 kg body weight” value (shortened to “WTP: total peripheral resistance”) [1]?
**A.** 6.62 U

**Q.** And the “dp/dt: rate of pressure increase in the left ventricle” value (“dp/dt: rate of pressure increase” below) [1]?
**A.** 2193.7 mm.Hg/sec

**Q.** And the “APdiast: diastolic aorta pressure” value [2]?
**A.** 85.9 mm.Hg

**Q.** What about the “APsyst: systolic aorta pressure” value [2] of the same compound?
**A.** 135.9 mm.Hg

**Q.** And the “BFFem: blood flow” value [2]?
**A.** 62.2 mL/min

**Q.** What about the “HF: heart frequency” value [2] of the same compound?
**A.** 96.2

**Q.** What about the “HLL: heart capacity left, referred” value [2] of the same compound?
**A.** 0.41 W

**Q.** What about the “HLR: heart capacity right, referred” value [2] of the same compound?
**A.** 47.3 mW

**Q.** What about the “HZV: heart minute volume, referred” value [2] of the same compound?
**A.** 1.93 L/min

**Q.** And the “SV: beat volume, referred” value [2]?
**A.** 20.5 mL

**Q.** What about the “WAP: pulmonalis resistance, referred” value [2] of the same compound?
**A.** 0.50 U

**Q.** What about the “WFem: moralis resistance, referred” value [2] of the same compound?
**A.** 0.25 KU

**Q.** What about the “WTP: total peripheral resistance” value [2] of the same compound?
**A.** 7.24 U

**Q.** And the “dp/dt: rate of pressure increase” value [2]?
**A.** 2006.2 mm.Hg/sec

**Q.** What about the “APdiast: diastolic aorta pressure” value [3] of the same compound?
**A.** 88.5 mm.Hg

**Q.** What about the “APsyst: systolic aorta pressure” value [3] of the same compound?
**A.** 136.8 mm.Hg

**Q.** What about the “BFFem: blood flow” value [3] of the same compound?
**A.** 62.6 mL/min

**Q.** And the “HF: heart frequency” value [3]?
**A.** 95.5

**Q.** And the “HLL: heart capacity left, referred” value [3]?
**A.** 0.39 W

**Q.** What about the “HLR: heart capacity right, referred” value [3] of the same compound?
**A.** 46.0 mW

**Q.** And the “HZV: heart minute volume, referred” value [3]?
**A.** 1.82 L/min

**Q.** And the “LVEDP: end diastolic pressure in the left ventricle” value (from here on “LVEDP: end diastolic pressure”) [3]?
**A.** 8.06 mm.Hg

**Q.** And the “SV: beat volume, referred” value [3]?
**A.** 19.4 mL

**Q.** And the “WAP: pulmonalis resistance, referred” value [3]?
**A.** 0.46 U

**Q.** And the “WFem: moralis resistance, referred” value [3]?
**A.** 0.26 KU

**Q.** And the “WTP: total peripheral resistance” value [3]?
**A.** 7.90 U

**Q.** And the “dp/dt: rate of pressure increase” value [3]?
**A.** 1968.7 mm.Hg/sec

**Q.** What about the “APdiast: diastolic aorta pressure” value [4] of the same compound?
**A.** 92.8 mm.Hg

**Q.** And the “APsyst: systolic aorta pressure” value [4]?
**A.** 137.8 mm.Hg

**Q.** And the “BFFem: blood flow” value [4]?
**A.** 57.4 mL/min

**Q.** What about the “HF: heart frequency” value [4] of the same compound?
**A.** 92.5

**Q.** What about the “HLL: heart capacity left, referred” value [4] of the same compound?
**A.** 0.34 W

**Q.** What about the “HLR: heart capacity right, referred” value [4] of the same compound?
**A.** 36.7 mW

**Q.** What about the “HZV: heart minute volume, referred” value [4] of the same compound?
**A.** 1.57 L/min

**Q.** What about the “LVEDP: end diastolic pressure” value [4] of the same compound?
**A.** 9.47 mm.Hg

**Q.** What about the “SV: beat volume, referred” value [4] of the same compound?
**A.** 17.4 mL

**Q.** What about the “WAP: pulmonalis resistance, referred” value [4] of the same compound?
**A.** 0.39 U

**Q.** What about the “WFem: moralis resistance, referred” value [4] of the same compound?
**A.** 0.29 KU

**Q.** And the “WTP: total peripheral resistance” value [4]?
**A.** 9.39 U

**Q.** And the “dp/dt: rate of pressure increase” value [4]?
**A.** 1743.7 mm.Hg/sec

**Q.** What about the “APdiast: diastolic aorta pressure” value [5] of the same compound?
**A.** 95.2 mm.Hg

**Q.** And the “APsyst: systolic aorta pressure” value [5]?
**A.** 139.7 mm.Hg

**Q.** And the “BFFem: blood flow” value [5]?
**A.** 49.9 mL/min

**Q.** What about the “HF: heart frequency” value [5] of the same compound?
**A.** 96.5

**Q.** What about the “HLL: heart capacity left, referred” value [5] of the same compound?
**A.** 0.35 W

**Q.** And the “HLR: heart capacity right, referred” value [5]?
**A.** 34.9 mW

**Q.** What about the “HZV: heart minute volume, referred” value [5] of the same compound?
**A.** 1.57 L/min

**Q.** What about the “LVEDP: end diastolic pressure” value [5] of the same compound?
**A.** 9.47 mm.Hg

**Q.** What about the “SV: beat volume, referred” value [5] of the same compound?
**A.** 17.0 mL

**Q.** What about the “WAP: pulmonalis resistance, referred” value [5] of the same compound?
**A.** 0.35 U

**Q.** What about the “WFem: moralis resistance, referred” value [5] of the same compound?
**A.** 0.36 KU

**Q.** What about the “WTP: total peripheral resistance” value [5] of the same compound?
**A.** 9.56 U

**Q.** And the “dp/dt: rate of pressure increase” value [5]?
**A.** 1659.4 mm.Hg/sec

**Q.** And the “APdiast: diastolic aorta pressure” value [6]?
**A.** 92.8 mm.Hg

**Q.** What about the “APsyst: systolic aorta pressure” value [6] of the same compound?
**A.** 139.7 mm.Hg

**Q.** And the “BFFem: blood flow” value [6]?
**A.** 49.5 mL/min

**Q.** And the “HF: heart frequency” value [6]?
**A.** 104.5

**Q.** What about the “HLL: heart capacity left, referred” value [6] of the same compound?
**A.** 0.35 W

**Q.** What about the “HLR: heart capacity right, referred” value [6] of the same compound?
**A.** 36.9 mW

**Q.** What about the “HZV: heart minute volume, referred” value [6] of the same compound?
**A.** 1.61 L/min

**Q.** What about the “LVEDP: end diastolic pressure” value [6] of the same compound?
**A.** 10.12 mm.Hg

**Q.** And the “SV: beat volume, referred” value [6]?
**A.** 15.9 mL

**Q.** And the “WAP: pulmonalis resistance, referred” value [6]?
**A.** 0.37 U

**Q.** And the “WFem: moralis resistance, referred” value [6]?
**A.** 0.37 KU

**Q.** And the “WTP: total peripheral resistance” value [6]?
**A.** 8.10 U

**Q.** What about the “dp/dt: rate of pressure increase” value [6] of the same compound?
**A.** 1640.6 mm.Hg/sec

**Q.** And the “APdiast: diastolic aorta pressure” value [7]?
**A.** 90.9 mm.Hg

**Q.** And the “APsyst: systolic aorta pressure” value [7]?
**A.** 137.8 mm.Hg

**Q.** What about the “BFFem: blood flow” value [7] of the same compound?
**A.** 50.9 mL/min

**Q.** What about the “HF: heart frequency” value [7] of the same compound?
**A.** 114.0

**Q.** And the “HLL: heart capacity left, referred” value [7]?
**A.** 0.37 W

**Q.** And the “HLR: heart capacity right, referred” value [7]?
**A.** 38.3 mW

**Q.** What about the “HZV: heart minute volume, referred” value [7] of the same compound?
**A.** 1.73 L/min

**Q.** And the “LVEDP: end diastolic pressure” value [7]?
**A.** 10.5 mm.Hg

**Q.** And the “SV: beat volume, referred” value [7]?
**A.** 15.5 mL

**Q.** What about the “WAP: pulmonalis resistance, referred” value [7] of the same compound?
**A.** 0.32 U

**Q.** And the “WFem: moralis resistance, referred” value [7]?
**A.** 0.32 KU

**Q.** And the “WTP: total peripheral resistance” value [7]?
**A.** 8.13 U

**Q.** And the “dp/dt: rate of pressure increase” value [7]?
**A.** 1621.9 mm.Hg/sec

**Q.** And the “APdiast: diastolic aorta pressure” value [8]?
**A.** 76.9 mm.Hg

**Q.** And the “APsyst: systolic aorta pressure” value [8]?
**A.** 152.8 mm.Hg

**Q.** And the “BFFem: blood flow” value [8]?
**A.** 51.5 mL/min

**Q.** What about the “HF: heart frequency” value [8] of the same compound?
**A.** 101.2

**Q.** And the “HLL: heart capacity left, referred” value [8]?
**A.** 0.50 W

**Q.** And the “HLR: heart capacity right, referred” value [8]?
**A.** 67.1 mW

**Q.** What about the “HZV: heart minute volume, referred” value [8] of the same compound?
**A.** 2.35 L/min

**Q.** And the “LVEDP: end diastolic pressure” value [8]?
**A.** 7.50 mm.Hg

**Q.** And the “PAP: average pressure in the A. pulmonalis” value [8]?
**A.** 15.59 mm.Hg

**Q.** And the “SV: beat volume, referred” value [8]?
**A.** 23.4 mL

**Q.** What about the “WAP: pulmonalis resistance, referred” value [8] of the same compound?
**A.** 0.46 U

**Q.** And the “WFem: moralis resistance, referred” value [8]?
**A.** 0.29 KU

**Q.** And the “WTP: total peripheral resistance” value [8]?
**A.** 5.78 U

**Q.** What about the “dp/dt: rate of pressure increase” value [8] of the same compound?
**A.** 1903.1 mm.Hg/sec

**Q.** And the “PRV: pressure in the right atrium” value (dog, in vivo, iv)?
**A.** 3.09

**Q.** And the “HF: heart frequency” value (iv, 0.5 mg/kg)?
**A.** 103.7

**Q.** And the “dp/dt: rate of pressure increase” value (iv, 0.5 mg/kg)?
**A.** 2306.2 mm.Hg/sec
